Results taken from patent publication US5073493A, “Monoclonal antibody NKY13” (Ikuo Yamashina, priority 1987, dated 1991).

How the values were obtained:
[1] = target: binding of the NKY13 to G-50I; experiment: Inhibition of the binding of NKY13 to G-50I by sugar chains; set-up: species or system mouse; settings: inhibition of binding of NKY13 to G-50I by the sugar chain
Method: Bovine serum albumin (1%) is added to wells of poly(vinyl chloride) on which, through the mediation of polylysine and glutaraldehyde, is immobilized mucin-type glycopeptide (G-50I) that is isolated from human intestinal cancer cells SW1116 or LS180. After allowing it to stand for 1 hr, the wells are washed, and then a monoclonal antibody NKY13 is added thereto and allowed to react overnight. After washing the wells, Protein A labelled with ^125 I is added, which is allowed to react for 2 hr. After washing the wells, the affinity of NKY13 is measured, taking as index the radioactivity of ^125 I combined with the well.
(§1) Structure of sugar chains recognized by monoclonal antibody NKY13 was investigated on the basis of the inhibition of the binding of the NKY13 to G-50I by the following sugar chains according to the above method. The same test was performed on NS19-9.

NS19-9 = experiment: Inhibition of NS19-9 binding by sugar chains (same test performed on NS19-9); settings: read-out: 50% INHIBITION (μM) NS19-9
Method: as §1

SMILES	IC50 [1] [µM]	IC50 (NS19-9) [µM]
CC(=O)N[C@H]1[C@H](O[C@H]2[C@@H](O)[C@@H](CO)O[C@@H](O[C@H]3[C@H](O)[C@@H](O)C(O)O[C@@H]3CO)[C@@H]2O)O[C@H](CO)[C@@H](O[C@@H]2O[C@@H](C)[C@@H](O)[C@@H](O)[C@@H]2O)[C@@H]1O[C@@H]1O[C@H](CO)[C@H](O)[C@H](O[C@]2(C(=O)O)C[C@H](O)[C@@H](NC(C)=O)[C@H]([C@H](O)[C@H](O)CO)O2)[C@H]1O (stereo partly shown)	1.86	11.1
CC(=O)N[C@H]1[C@H](O[C@H]2[C@@H](O)[C@@H](CO)O[C@@H](O[C@H]3[C@H](O)[C@@H](O)C(O)O[C@@H]3CO)[C@@H]2O)O[C@H](CO[C@]2(C(=O)O)C[C@H](O)[C@@H](NC(C)=O)[C@H]([C@H](O)[C@H](O)CO)O2)[C@@H](O)[C@@H]1O[C@@H]1O[C@H](CO)[C@H](O)[C@H](O[C@]2(C(=O)O)C[C@H](O)[C@@H](NC(C)=O)[C@H]([C@H](O)[C@H](O)CO)O2)[C@H]1O (stereo partly shown)	320	3550
CC(=O)N[C@H]1[C@H](O[C@H]2[C@@H](O)[C@@H](CO)O[C@@H](O[C@H]3[C@H](O)[C@@H](O)C(O)O[C@@H]3CO)[C@@H]2O)O[C@H](CO)[C@@H](O)[C@@H]1O[C@@H]1O[C@H](CO)[C@H](O)[C@H](O[C@]2(C(=O)O)C[C@H](O)[C@@H](NC(C)=O)[C@H]([C@H](O)[C@H](O)CO)O2)[C@H]1O (stereo partly shown)	320	3550
CC(=O)N[C@H]1[C@H](O[C@H]2[C@@H](O)[C@@H](CO)O[C@@H](O[C@H]3[C@H](O)[C@@H](O)C(O)O[C@@H]3CO)[C@@H]2O)O[C@H](CO[C@]2(C(=O)O)C[C@H](O)[C@@H](NC(C)=O)[C@H]([C@H](O)[C@H](O)CO)O2)[C@@H](O)[C@@H]1O[C@@H]1O[C@H](CO)[C@H](O)[C@H](O)[C@H]1O (stereo partly shown)	> 10000	> 10000
CC(=O)N[C@H]1[C@H](O[C@H]2[C@@H](O)[C@@H](CO)O[C@@H](O[C@H]3[C@H](O)[C@@H](O)C(O)O[C@@H]3CO)[C@@H]2O)O[C@H](CO)[C@@H](O[C@@H]2O[C@@H](C)[C@@H](O)[C@@H](O)[C@@H]2O)[C@@H]1O[C@@H]1O[C@H](CO)[C@H](O)[C@H](O)[C@H]1O (stereo partly shown)	> 10000	2320
CC(=O)N[C@H]1[C@H](O[C@H]2[C@@H](O)[C@@H](CO)O[C@@H](O[C@H]3[C@H](O)[C@@H](O)C(O)O[C@@H]3CO)[C@@H]2O)O[C@H](CO)[C@@H](O[C@@H]2O[C@@H](C)[C@@H](O)[C@@H](O)[C@@H]2O)[C@@H]1O[C@@H]1O[C@H](CO)[C@H](O)[C@H](O)[C@H]1O[C@@H]1O[C@@H](C)[C@@H](O)[C@@H](O)[C@@H]1O (stereo partly shown)	> 10000	> 10000
CC(=O)N[C@H]1[C@H](O[C@H]2[C@@H](O)[C@@H](CO)O[C@@H](O[C@H]3[C@H](O)[C@@H](O)C(O)O[C@@H]3CO)[C@@H]2O)O[C@H](CO)[C@@H](O)[C@@H]1O[C@@H]1O[C@H](CO)[C@H](O)[C@H](O)[C@H]1O (stereo partly shown)	> 10000	> 10000
CC(=O)N[C@H]1[C@H](O[C@H]2[C@@H](O)[C@@H](CO)O[C@@H](O[C@H]3[C@H](O)[C@@H](O)C(O)O[C@@H]3CO)[C@@H]2O)O[C@H](CO)[C@@H](O[C@@H]2O[C@H](CO)[C@H](O)[C@H](O)[C@H]2O)[C@@H]1O[C@@H]1O[C@@H](C)[C@@H](O)[C@@H](O)[C@@H]1O (stereo partly shown)	> 10000	> 10000
C[C@@H]1OC(O)[C@@H](O)[C@H](O)[C@@H]1O (stereo partly drawn) [L-Fucose]	> 10000	14000
CC(=O)N[C@H]1[C@H]([C@H](O)[C@H](O)CO)OC(O)(C(=O)O)C[C@@H]1O (stereo partly shown) [NeuAc]	9000	> 10000
O=C(CO)N[C@H]1[C@H]([C@H](O)[C@H](O)CO)OC(O)(C(=O)O)C[C@@H]1O (stereo partly shown) [NeuGc]	9000	> 10000
